This is an account of results in patent US7687054B2, “Biocompatible compounds for sustained release pharmaceutical drug delivery systems” (3M Innovative Properties Company, priority 1997, dated 2010).

In data set [1] the test system is tumor necrosis factor (TNF). Put plainly: TNF levels in lung lavage and serum after inhalation of IMQ MDI formulations. It is filed as in vivo, mouse. Conditions: mice. As for the experimental part: Typically, the animals were exposed to 20 actuations per minute for 25 minutes of an MDI generated 2 micron average MMAD aerosol. Lung lavage and bleeding of the exposed mice, were performed by standard methods known to those skilled in the art and tumor necrosis factor (TNF) analyses were performed by an ELISA method specific for TNF in the mouse (Genzyme Immunobiologicals, Cambridge, Mass.). TNF is a marker for this drug's activity. Pulmonary therapy application of IMQ prefers drug activity localized in the lung. Therefore, it was desirable to maintain high levels of drug in the lung and minimize systemic drug. However, this formulation and method could also clearly be used to provide long term release of IMQ or analogous compounds for systemic applications. The lavage numbers are measurements of TNF levels in the lung while the serum levels measure systemic TNF levels.

Data set [2] is described as follows: Degradation temperature by modulated DSC (thermal stability). As for the experimental part: (§1) Thermal properties (glass transition, melting, and degradation points; Tg, Tm, Tdeg) were determined utilizing a modulated differential scanning calorimeter (DSC) TA Instruments, New Castle, Del. A linear heating rate of 5° C./minute was applied, with a perturbation amplitude of ±1° C. every 60 seconds. […] The glass transition temperatures (Tg) reported were taken at the midpoint in the change in heat capacity over the step transition, and were evaluated using the reversing signal curve.
The salts were prepared by mixing suitable solutions (e.g., acetone, chloroform, methanol) of the drug and PLA in the desired ratio, followed by evaporation and extensive drying under high vacuum to remove all traces of solvent. […] Bioavailability frequently correlates with the water solubility of the drug-complex. The water solubility of the PHAs is dependent on the molecular weight and the nature of the end groups.
The molecular weight of the acylated polymer necessary to provide an insoluble salt is dependent both on the nature of the drug and the end-group used. It will be recognized that the characteristics (MW, distribution, chemical nature, endgroups, etc.) of the polymer counter-ion will be important to the ultimate pharmacokinetics of the drug.

Data set [3] in a line: Glass transition temperature (Tg) by modulated DSC. In kind it is physicochemical. Conditions: PLA/Drug mole/mole ratio 0 (drug alone). As for the experimental part:
as §1
It will also be recognized that other biologically acceptable molecules (e.g., excipients) which are not the active agent, may be added to improve the matrix material's properties.

For data set [4], the system named is antigen (ovalalbumin) challenged guinea pigs. Put plainly: Guinea pig early phase anaphylactic response test (pulmonary dynamic compliance). It is filed as in vivo, male Hartley guinea pigs. The conditions noted are these: inhalation. As for the experimental part: Pat. […] Pat. […] Typical inhalation exposure systems were comprised of an aerosol generator, e.g., an MDI, a 150 ml aerosol expansion chamber, and a trachea cannula. Each guinea pig received 4 actuations containing 32 ug drug/actuation. The guinea pigs were antigen (ovalalbumin) challenged at varied times and pulmonary dynamic compliance was tested using a Buxco pulmonary mechanics analyzer (Buxco Electronics, Sharon Conn.) according to the method of Amdur and Mead (The American Journal of Physiology, Vol. 92, pp. 364-368 (1958)).

Setting [5] is: PLA/Drug molar ratio 0 (drug alone).

Structures can show the parent of a compound that is named as a salt. Where two headings read alike, the source gives them in different places.

`Cc1nc2c(N)nc3ccccc3c2n1CC(C)(C)O` [IMQ alone]: the “TNF level, Lavage” value in data set [1] (0 hours after dosing) turned out to be 40 pg/mL; in data set [1] (1 hour after dosing), 105 pg/mL; in data set [1] (2 hours after dosing), 213 pg/mL; in data set [1] (4 hours after dosing), 144 pg/mL. Further, the “TNF level, Serum” value in data set [1] (0 hours after dosing) was determined as 13 pg/mL; in data set [1] (1 hour after dosing) it was 6 pg/mL; in data set [1] (2 hours after dosing) it was 193 pg/mL; in data set [1] (4 hours after dosing), 577 pg/mL.

On to acetyl-poly (L-lactic acid) [Example 7], for which the “Degradation Temperature” value in data set [2] was more than 225 °C.

For the molecule `CC(C)(C)NCC(O)c1ccc(O)c(CO)c1` (stereo not drawn) [Albuterol base], the Tg in data set [3] was found to be 48.9 °C.

On to `CCC(CC)N(O)C(=O)Nc1ccccc1` [Example 5LO], for which the results for the “Percent Inhibition of Bronchoconstriction” value in data set [4] (challenge 15 minutes after dosing), in data set [4] (challenge 30 minutes after dosing) and in data set [4] (challenge 60 minutes after dosing) were 67%, 48% and 4%, respectively.

`[H]/N=C(\N/C(=N/[H])NCCCCCCNC(=N)NC(=N)Nc1ccc(Cl)cc1)Nc1ccc(Cl)cc1` [Chlorhexidine base]: the Tg in data set [3] amounted to 38.5 °C. The “Degradation Temperature” value in data set [2] (setting [5]) is more than 225 °C.

With `CCN(CC)CC(=O)Nc1c(C)cccc1C` [Lidocaine], the Tg entry in data set [3] is on record as “none”. The “Degradation Temperature” value in data set [2] (setting [5]) came out at 159 °C.

As to Albuterol sulfate, in data set [3], the Tg is 49 °C.

As for `CCN(CC)CC(=O)Nc1c(C)cccc1C` [Lidocaine HCl], the Tg in data set [3] (HCl) stood at 30.7 °C.

As for `CN(C)[C@@H]1C(O)=C(C(N)=O)C(=O)[C@@]2(O)C(O)=C3C(=O)c4c(O)cccc4[C@@](C)(O)[C@H]3C[C@@H]12` [Tetracycline HCl], in data set [3], the Tg worked out at 50.5 °C.

For the molecule `CN(C)[C@@H]1C(O)=C(C(N)=O)C(=O)[C@@]2(O)C(O)=C3C(=O)c4c(O)cccc4[C@@](C)(O)[C@H]3C[C@@H]12` [Tetracycline], the “Degradation Temperature” value in data set [2] (setting [5]) turned out to be 179 °C.
